Test results from US9708336B2, “Metallo-beta-lactamase inhibitors” (priority 2014, dated 2017).
Like-named read-outs stand apart in the source and are kept apart here.

Legend:
[1] = tested on: Serratia marcescens expressing IMP-1 (CL5741); test: Antibiotic potentiation activity: synergistic concentration (MITC95) with imipenem, OD600 growth; type: cell-based; settings: for Serratia marcescens expressing IMP-1 (CL5741) MITC95: concentration giving 95% inhibition of bacterial growth
Method in brief: (§1)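 Overnight colonies (35 °C) were suspended in saline, diluted 1:100 into 1.1× CAMHB, and exposed to test compound with imipenem at 4 μg/ml (optionally 1 μg/ml) in assay. After 22–24 h at 35 °C, growth was read by absorbance.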

[2] = tested on: Klebsiella pneumoniae expressing VIM-1 (IHMA599644); test: as above; type: cell-based; settings: for Klebsiella pneumoniae expressing VIM-1 (IHMA 599644) MITC95: concentration giving 95% inhibition of bacterial growth
Method in brief: as §1

[3] = tested on: Escherichia coli expressing NDM-1 (CLB30016); test: as above; type: cell-based; settings: for Escherichia coli expressing NDM-1 (CLB 30016) MITC95: concentration giving 95% inhibition of bacterial growth
Method in brief: as §1

IMP-1 = IMP-1 (Serratia marcescens, UniProt P52699); test: biochemical; type: biochemical; settings: read-out: IMP-1 IC50
NDM-1 = NDM-1 (Klebsiella pneumoniae, UniProt C7C422); test: biochemical; type: biochemical; settings: read-out: NDM-1 IC50
VIM-1 = VIM-1 (Pseudomonas aeruginosa (strain ATCC 15692 / DSM 22644 / CIP 104116 / JCM 14847 / LMG 12228 / 1C / PRS 101 / PAO1), UniProt A0A0F7KYQ8); test: Enzyme activity: determination of IC50, fluorescence assay with CCF2-FA substrate (VIM-1); type: biochemical
[4] = Serratia marcescens CL5741 (IMP-1), 95% growth inhibition
[5] = Klebsiella pneumoniae IHMA599644 (VIM-1), 95% growth inhibition
[6] = (CLB30016, NDM-1), 95% growth inhibition
[7] = IMP-1 enzyme, CCF2-FA substrate
[8] = NDM-1 enzyme, CCF2-FA substrate
[9] = VIM-1 enzyme, CCF2-FA substrate, read-out: VIM-1 IC50
[10] = CL5741 (IMP-1), 95% inhibition of bacterial growth
[11] = IHMA599644 (VIM-1), 95% inhibition of bacterial growth
[12] = CLB30016 (NDM-1), 95% inhibition of bacterial growth
[13] = fluorescence assay with CCF2-FA substrate
[14] = Serratia marcescens expressing IMP-1 (CL5741), 95% growth inhibition
[15] = Klebsiella pneumoniae expressing VIM-1 (IHMA599644), 95% growth inhibition
[16] = Escherichia coli expressing NDM-1 (CLB30016), 95% growth inhibition
[17] = IMP-1 enzyme, CCF2-FA fluorescence assay
[18] = NDM-1 enzyme, CCF2-FA fluorescence assay
[19] = VIM-1 enzyme, CCF2-FA fluorescence assay, read-out: VIM-1 IC50
[20] = fluorescence assay with CCF2-FA substrate, read-out: VIM-1 IC50

Chain of IMP-1 (P52699 whole entry, looked up): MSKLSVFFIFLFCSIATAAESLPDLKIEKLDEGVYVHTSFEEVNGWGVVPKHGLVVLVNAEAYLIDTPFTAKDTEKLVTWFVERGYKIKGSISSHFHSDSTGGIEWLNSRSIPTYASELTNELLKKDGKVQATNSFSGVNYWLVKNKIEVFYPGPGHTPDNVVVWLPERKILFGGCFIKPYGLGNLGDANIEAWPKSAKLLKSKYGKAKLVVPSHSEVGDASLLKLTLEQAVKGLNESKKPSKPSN
Chain of NDM-1 (C7C422 whole entry, looked up, species assumed): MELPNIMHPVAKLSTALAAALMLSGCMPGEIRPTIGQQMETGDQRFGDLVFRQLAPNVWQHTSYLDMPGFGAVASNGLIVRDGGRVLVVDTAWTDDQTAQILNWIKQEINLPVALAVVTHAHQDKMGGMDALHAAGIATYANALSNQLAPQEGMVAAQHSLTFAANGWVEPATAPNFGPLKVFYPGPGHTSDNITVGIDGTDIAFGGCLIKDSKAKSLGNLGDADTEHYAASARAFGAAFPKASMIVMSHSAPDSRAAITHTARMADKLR

| SMILES | Serratia marcescens MITC95 [1, 4] [µM] | Klebsiella pneumoniae MITC95 [2, 5] [µM] | Escherichia coli MITC95 [3, 6] [µM] | IC50 (IMP-1; [7]) [nM] | IC50 (NDM-1; [8]) [nM] | IC50 (VIM-1; [9]) [nM] | IC50 (IMP-1; [13]) [nM] | IC50 (NDM-1; [13]) [nM] | IC50 (VIM-1; [20]) [nM] | further results |
| --- | --- | --- | --- | --- | --- | --- | --- | --- | --- | --- |
| NS(=O)(=O)c1c(C(F)(F)F)ccc(N2CCC(CCO)CC2)c1-c1nnn[nH]1 [Example 661, 3-[4-(2-hydroxyethyl)piperidin-1-yl]-2-(1H-tetrazol-5-yl)-6-(trifluoromethyl)benzenesulfonamide] | 0.0625 | 2.75 | 2.703 | 0.965 | 1.01 | 0.22 | – | – | – | – |
| NCCN[C@H]1CC[C@H](c2ccc(C(F)(F)F)c(S(N)(=O)=O)c2-c2nnn[nH]2)CC1 [Example 700, 3-{4-[(2-aminoethyl)amino]cyclo-hexyl}-2-(1H-tetrazol-5-yl)-6-(trifluoromethyl)benzene sulfonamide] | 3.125 | 1.563 | 0.3906 | 16.7 | 3.94 | – | – | – | – | IC50 (VIM-1; VIM-1 IC50, VIM-1 enzyme, CCF2-FA substrate): 0.958 nM |
| NS(=O)(=O)c1c(C(F)(F)F)ccc(-c2ccc(C3CCN(C4CC5CCC4N5)CC3)cc2)c1-c1nnn[nH]1 (stereo not drawn) [Example 788, 4′-[1-(7-azabicyclo[2.2.1]hept-2-yl)piperidin-4-yl]-2-(1H-tetrazol-5-yl)-4-(trifluoromethyl)biphenyl-3-sulfonamide] | – | – | – | – | – | – | 0.438 | 2.83 | – | Serratia marcescens MITC95 [1, 10]: 6.25 µM; Klebsiella pneumoniae MITC95 [2, 11]: >200 µM; Escherichia coli MITC95 [3, 12]: 6.25 µM; IC50 (VIM-1; VIM-1 IC50, fluorescence assay with CCF2-FA substrate): 35.7 nM |
| NS(=O)(=O)c1c(C(F)(F)F)ccc(C2CCn3cncc3C2)c1-c1nnn[nH]1 (stereo not drawn) [Example 494, 3-(5,6,7,8-Tetrahydroimidazo[1,5-a]pyridin-7-yl)-2-(1H-tetrazol-5-yl)-6-(trifluoromethyl)benzenesulfonamide] | 1.172 | 1.563 | 0.3906 | 13 | 4.43 | 0.427 | – | – | – | – |
| NS(=O)(=O)c1cccc(-c2ccc(C3(O)CCNC3)cc2)c1-c1nn[nH]n1 (stereo not drawn) [Example 284, 4′-(3-hydroxypyrrolidin-3-yl)-2-(2H-tetrazol-5-yl)-[1,1′-biphenyl]-3-sulfonamide] | – | – | – | – | – | – | – | – | – | Serratia marcescens MITC95 [1, 14]: 1.563 µM; Klebsiella pneumoniae MITC95 [2, 15]: 4.688 µM; Escherichia coli MITC95 [3, 16]: 0.7813 µM; IC50 (IMP-1; [17]): 102 nM; IC50 (NDM-1; [18]): 12.7 nM; IC50 (VIM-1; [19]): 55.5 nM |
| CC(CO)(CO)c1ccc(-c2ccc(C(F)(F)F)c(S(N)(=O)=O)c2-c2nnn[nH]2)cc1 [Example 725, 4′-[2-hydroxy-1-(hydroxymethyl)-1-methylethyl]-2-(1H-tetrazol-5-yl)-4-(trifluoromethyl)biphenyl-3-sulfonamide] | 6.25 | 25 | 12.5 | 0.92 | 0.767 | 1.27 | – | – | – | – |
| NS(=O)(=O)c1cccc(-c2snc3cccnc23)c1-c1nnn[nH]1 [Example 414, 3-isothiazolo[4,3-b]pyridin-3-yl-2-(1H-tetrazol-5-yl)benzenesulfonamide] | – | – | – | – | – | – | – | – | – | Serratia marcescens MITC95 [1, 14]: 4.688 µM; Klebsiella pneumoniae MITC95 [2, 15]: 18.75 µM; Escherichia coli MITC95 [3, 16]: 2.344 µM; IC50 (IMP-1; [17]): 177 nM; IC50 (NDM-1; [18]): 6.01 nM; IC50 (VIM-1; [19]): 19.9 nM |
| NC1Cc2cccc(-c3ccc(C(F)(F)F)c(S(N)(=O)=O)c3-c3nnn[nH]3)c2C1 (stereo not drawn) [Example 836, 3-(2-aminoindan-4-yl)-2-(1H-tetrazol-5-yl)-6-(trifluoromethyl)benzenesulfonamide] | – | – | – | – | – | – | 134 | 54.9 | 2.39 | Serratia marcescens MITC95 [1, 10]: 4.688 µM; Klebsiella pneumoniae MITC95 [2, 11]: 1.563 µM; Escherichia coli MITC95 [3, 12]: 2.344 µM |
| Nc1nc2c(-c3ccc(CCC4CCC(N)CC4)c(S(N)(=O)=O)c3-c3nn[nH]n3)cccc2s1 (stereo not drawn) [Example 541, 3-(2-Aminobenzo[d]thiazol-4-yl)-6-(2-(4-aminocyclohexyl)ethyl)-2-(2H-tetrazol-5-yl)benzenesulfonamide] | 6.25 | 25 | 3.125 | 7.21 | 0.133 | 5.11 | – | – | – | – |
| NS(=O)(=O)c1c(C(F)(F)F)ccc(-c2ccc(C3CN(CC4CNC4)C3)cc2)c1-c1nnn[nH]1 [Example 800, 4′-[1-(azetidin-3-ylmethyl)azetidin-3-yl]-2-(1H-tetrazol-5-yl)-4-(trifluoromethyl)biphenyl-3-sulfonamide] | – | – | – | – | – | – | 5.14 | 2.68 | 14.3 | Serratia marcescens MITC95 [1, 10]: 6.25 µM; Klebsiella pneumoniae MITC95 [2, 11]: 12.5 µM; Escherichia coli MITC95 [3, 12]: 0.7813 µM |
| NC1CCC(c2ccc(CC3CCNCC3)c(S(N)(=O)=O)c2-c2nn[nH]n2)CC1 (stereo not drawn) [Example 839, 3-(4-aminocyclohexyl)-6-(piperidin-4-ylmethyl)-2-(2H-tetrazol-5-yl)benzenesulfonamide] | – | – | – | – | – | – | 359 | 56.9 | 19.3 | Serratia marcescens MITC95 [1, 10]: 6.25 µM; Klebsiella pneumoniae MITC95 [2, 11]: 6.25 µM; Escherichia coli MITC95 [3, 12]: 3.125 µM |
| NC1CCC2CN(c3ccc(C(F)(F)F)c(S(N)(=O)=O)c3-c3nnn[nH]3)CC2C1 (stereo not drawn) [Example 767, 3-(5-aminooctahydro-2H-isoindol-2-yl)-2-(1H-tetrazol-5-yl)-6-(trifluoromethyl) benzenesulfonamide] | – | – | – | – | – | – | 223 | 208 | 4.58 | Serratia marcescens MITC95 [1, 10]: 50 µM; Klebsiella pneumoniae MITC95 [2, 11]: 12.5 µM; Escherichia coli MITC95 [3, 12]: 200 µM |
| N=C(N)N1CCC(Cc2ccc(-c3ccc(C4CNC4)cc3)c(-c3nn[nH]n3)c2S(N)(=O)=O)CC1 [Example 604, 4-[[4-[4-(azetidin-3-yl)phenyl]-2-sulfamoyl-3-(2H-tetrazol-5-yl)phenyl]methyl]piperidine-1-carboxamidine] | 6.25 | 1.563 | 1.563 | 41.7 | 3.31 | 0.899 | – | – | – | – |
| N#Cc1cncc(-c2cccc(S(N)(=O)=O)c2-c2nnn[nH]2)c1 [Example 136, 3-(5-cyanopyridin-3-yl)-2-(1H-tetrazol-5-yl)benzenesulfonamide] | – | – | – | – | – | – | 1690 | 24.8 | 150 | Serratia marcescens expressing IMP-1 (CL5741) MITC95 [1]: 25 µM; Klebsiella pneumoniae expressing VIM-1 (IHMA 599644) MITC95 [2]: 37.5 µM; Escherichia coli expressing NDM-1 (CLB 30016) MITC95 [3]: 1.563 µM |
| NS(=O)(=O)c1nccc(NCCC2CCCCC2)c1-c1nnn[nH]1 [Example 236, 4-[(2-cyclohexylethyl)amino]-3-(1H-tetrazol-5-yl)pyridine-2-sulfonamide] | – | – | – | – | – | – | 223 | 38.6 | 188 | Serratia marcescens expressing IMP-1 (CL5741) MITC95 [1]: 25 µM; Klebsiella pneumoniae expressing VIM-1 (IHMA 599644) MITC95 [2]: >200 µM; Escherichia coli expressing NDM-1 (CLB 30016) MITC95 [3]: 18.75 µM |
| NS(=O)(=O)c1c(C(F)(F)F)ccc([C@H]2CC[C@H](NC3CCNC3)CC2)c1-c1nnn[nH]1 (stereo partly drawn) [Example 696, 3-[4-(pyrrolidin-3-ylamino)cyclohexyl]-2-(1H-tetrazol-5-yl)-6-(trifluoromethyl)benzene sulfonamide] | 1.563 | 3.125 | 0.3906 | 5.26 | 1.09 | 2.38 | – | – | – | – |
| Nc1cnc(-c2cccc(S(N)(=O)=O)c2-c2nnn[nH]2)cn1 [Example 402, 3-(5-aminopyrazin-2-yl)-2-(1H-tetrazol-5-yl)benzenesulfonamide] | – | – | – | – | – | – | – | – | – | Serratia marcescens MITC95 [1, 14]: 6.25 µM; Klebsiella pneumoniae MITC95 [2, 15]: 25 µM; Escherichia coli MITC95 [3, 16]: 0.3906 µM; IC50 (IMP-1; [17]): 389 nM; IC50 (NDM-1; [18]): 8.09 nM; IC50 (VIM-1; [19]): 349 nM |
| NS(=O)(=O)c1cccc(-c2ccc3nc(C(=O)O)ccc3c2)c1-c1nn[nH]n1 [Example 287, 6-(3-sulfamoyl-2-(2H-tetrazol-5-yl)phenyl)quinoline-2-carboxylic acid] | – | – | – | – | – | – | – | – | – | Serratia marcescens MITC95 [1, 14]: 18.75 µM; Klebsiella pneumoniae MITC95 [2, 15]: 37.5 µM; Escherichia coli MITC95 [3, 16]: 9.375 µM; IC50 (IMP-1; [17]): 159 nM; IC50 (NDM-1; [18]): 0.734 nM; IC50 (VIM-1; [19]): 34 nM |
| NS(=O)(=O)c1cccc(-c2cnc3n2CCCC3)c1-c1nnn[nH]1 [Example 419, 3-(5,6,7,8-tetrahydroimidazo[1,2-a]pyridin-3-yl)-2-(1H-tetrazol-5-yl)benzenesulfonamide] | – | – | – | – | – | – | – | – | – | Serratia marcescens MITC95 [1, 14]: 25 µM; Klebsiella pneumoniae MITC95 [2, 15]: 25 µM; Escherichia coli MITC95 [3, 16]: 0.25 µM; IC50 (IMP-1; [17]): 1040 nM; IC50 (NDM-1; [18]): 51.9 nM; IC50 (VIM-1; [19]): 469 nM |
